Literature values in US12336975B2, “Composition and methods for treatment or prophylaxis of coronavirus and cancers” ([…], priority 2020, dated 2025).

Test system: COVID-19
Settings: preventive and treatment approach for COVID-19

SMILES: CCN(CCO)CCCC(C)Nc1ccnc2cc(Cl)ccc12 (centres unmarked) [hydroxychloroquine]
- efficacy against COVID-19: no effective results
- reported side effect rate: 40.1%
